In general, pKa refers to the pH at which an ionisable group is half protonated. Read a low pKa as a group that gives up its proton readily.

For one data set, the system named is Calf thymus DNA. The conditions noted are these: Bos taurus.

Description for Calf thymus DNA: Association constant measured for binding towards poly[d(A-T)] of DNA in calf thymus
Description for physchem: Ionisation constant (pKa)

Compound `COc1cc(NS(C)(=O)=O)ccc1Nc1c2ccccc2nc2c(OCC(O)CO)cccc12` (stereo not given) yielded a Log K in the data set with Calf thymus DNA of 5.9. Besides, the pKa in the data set “physchem” worked out at 7.3.
For `COc1cc(NS(C)(=O)=O)ccc1Nc1c2ccccc2nc2c(C(=O)NCC(O)CO)cccc12` (stereo not given), in the data set with Calf thymus DNA, the Log K was found to be 5.26.
Consider `COc1cc(NS(C)(=O)=O)ccc1Nc1c2ccccc2nc2c(C#N)cccc12`, for which the Log K in the data set with Calf thymus DNA came out at 5.01. In addition, the pKa in the data set “physchem” was 4.87.
`COc1cc(NS(C)(=O)=O)ccc1Nc1c2ccccc2nc2cc(I)ccc12` gave a Log K in the data set with Calf thymus DNA of 6.35. Also, the pKa in the data set “physchem” was 6.77.
In the data set on Calf thymus DNA, `CNC(=O)c1cccc2c(Nc3ccc(NS(C)(=O)=O)cc3OC)c3ccccc3nc12` had a Log K of 5.54.
Turning to `COc1cc(NS(C)(=O)=O)ccc1Nc1c2ccccc2nc2cc(C(F)(F)F)ccc12`, the Log K in the data set on Calf thymus DNA was 5.24. Moreover, the pKa in “physchem” is 6.24.
In the data set on Calf thymus DNA, `COc1cc(NS(C)(=O)=O)ccc1Nc1c2ccccc2nc2c(C(=O)NCC(N)=O)cccc12` yielded a Log K of 5.39.
As to `COc1cc(NS(C)(=O)=O)ccc1Nc1c2ccccc2nc2cc(C(N)=O)ccc12`, in the data set on Calf thymus DNA, the Log K is 5.66. Further, in the data set “physchem”, the pKa came to 6.66.
For `COc1cc(NS(C)(=O)=O)ccc1Nc1c2ccccc2nc2c(C(=O)NCC(C)O)cccc12` (stereo not given) the same measures were 5.34 and 6.2.
Turning to `COc1cc(NS(C)(=O)=O)ccc1Nc1c2ccccc2nc2ncccc12`, in the data set on Calf thymus DNA, the Log K was determined as 5.27.
Compound `COc1ccc2c(Nc3ccc(NS(C)(=O)=O)cc3OC)c3ccccc3nc2c1` showed a Log K in the data set on Calf thymus DNA of 5.83. The same compound came in with a pKa in “physchem” of 7.81.
On to `COc1cc(NS(C)(=O)=O)ccc1Nc1c2ccccc2nc2c(C)cccc12`, for which the Log K in the data set with Calf thymus DNA came to 6.03. This compound yielded a pKa in “physchem” of 7.39.
In turn, `COc1cc(NS(C)(=O)=O)ccc1Nc1c2ccccc2nc2cc(C(C)C)ccc12` gave a Log K in the data set with Calf thymus DNA of 5.46. The pKa in the data set “physchem” was 7.66.
The compound `COc1cc(NS(C)(=O)=O)ccc1Nc1c2ccccc2nc2c(OC)cccc12` registered a Log K in the data set with Calf thymus DNA of 5.94. This compound registered a pKa in the data set “physchem” of 7.39.
The matching figures for `COc1cc(NS(C)(=O)=O)ccc1Nc1c2ccccc2nc2c(OCCO)cccc12`: 5.74 and 7.36.
`COc1cc(NS(C)(=O)=O)ccc1Nc1c2ccccc2nc2cc(F)ccc12` showed a Log K in the data set with Calf thymus DNA of 5.54. For the same compound, in the data set “physchem”, the pKa was 7.05.
In turn, `COc1cc(NS(C)(=O)=O)ccc1Nc1c2ccccc2nc2cc(N)ccc12` displayed a Log K in the data set on Calf thymus DNA of 6.21. The compound also yielded a pKa in “physchem” of 9.92.
With `COc1cc(NS(C)(=O)=O)ccc1Nc1c2ccccc2nc2cc(NC(C)=O)ccc12`, the Log K in the data set on Calf thymus DNA amounted to 6.24.
In the data set with Calf thymus DNA, `COc1cc(NS(C)(=O)=O)ccc1Nc1c2ccccc2nc2c([N+](=O)[O-])cccc12` came in with a Log K of 5.2. The compound also gave a pKa in “physchem” of 5.05.
In turn, `COc1cc(NS(C)(=O)=O)ccc1Nc1c2ccccc2nc2cc(Cl)ccc12` showed a Log K with Calf thymus DNA of 6.06. In addition, in the data set “physchem”, the pKa came out at 6.84.
Regarding `COc1cc(NS(C)(=O)=O)ccc1Nc1c2ccccc2nc2c(C(=O)NCCCO)cccc12`, the Log K in the data set on Calf thymus DNA worked out at 5.4. Moreover, the pKa in “physchem” was determined as 6.3.
For `COC(=O)Nc1ccc2c(Nc3ccc(NS(C)(=O)=O)cc3OC)c3ccccc3nc2c1`, the Log K with Calf thymus DNA came out at 6.37. The pKa in “physchem” is 7.77.
`COc1cc(NS(C)(=O)=O)ccc1Nc1c2ccccc2nc2ccc(C(C)C)cc12` registered a Log K with Calf thymus DNA of 5.39. In “physchem”, this compound showed a pKa of 7.4.
With `COc1cc(NS(C)(=O)=O)ccc1Nc1c2ccccc2nc2ccc(F)cc12`, the Log K in the data set with Calf thymus DNA is 5.28. Further, in the data set “physchem”, the pKa stood at 6.71.
For `COc1cc(NS(C)(=O)=O)ccc1Nc1c2ccccc2nc2cc(C)ccc12` the same measures were 5.95 and 7.7.
Turning to `COc1cc(NS(C)(=O)=O)ccc1Nc1c2ccccc2nc2cc([N+](=O)[O-])ccc12`, the Log K in the data set with Calf thymus DNA amounted to 5.65.
Consider `CNc1ccc2c(Nc3ccc(NS(C)(=O)=O)cc3OC)c3ccccc3nc2c1`, for which the Log K with Calf thymus DNA amounted to 6.17. Further, in “physchem”, the pKa turned out to be 10.1.
The matching figures for `COc1cc(NS(C)(=O)=O)ccc1Nc1c2ccccc2nc2c(C(=O)N3CCOCC3)cccc12`: 4.96 and 6.03.
For the compound `COc1cc(NS(C)(=O)=O)ccc1Nc1c2ccccc2nc2c(Cl)cccc12`, the Log K in the data set with Calf thymus DNA stood at 5.76. The pKa in the data set “physchem” is 6.11.
Compound `COc1cc(NS(C)(=O)=O)ccc1Nc1c2ccccc2nc2cc(C#N)ccc12` gave a Log K in the data set on Calf thymus DNA of 5.65. Besides, in the data set “physchem”, the pKa was found to be 5.94.
`CNC(=O)COc1cccc2c(Nc3ccc(NS(C)(=O)=O)cc3OC)c3ccccc3nc12` had a Log K in the data set with Calf thymus DNA of 5.8. Moreover, in the data set “physchem”, the pKa is 7.35.
In the case of `COc1cc(NS(C)(=O)=O)ccc1Nc1c2ccccc2nc2c(F)cccc12`, the Log K in the data set on Calf thymus DNA worked out at 5.65. For the same compound, in the data set “physchem”, the pKa was determined as 6.33.
For `COc1cc(NS(C)(=O)=O)ccc1Nc1c2ccccc2nc2c(Br)cccc12` the same measures were 5.57 and 6.09.
In the data set with Calf thymus DNA, `COc1cc(NS(C)(=O)=O)ccc1Nc1c2ccccc2nc2cnccc12` displayed a Log K of 5.09. Further, the pKa in “physchem” was 5.53.
Regarding `C=NC(=O)CCc1cccc2c(Nc3ccc(NS(C)(=O)=O)cc3OC)c3ccccc3nc12`, the Log K with Calf thymus DNA worked out at 5.65. The compound further had a pKa in the data set “physchem” of 7.15.
In turn, `COc1cc(NS(C)(=O)=O)ccc1Nc1c2ccccc2nc2c(C(=O)N(C)C)cccc12` displayed a Log K in the data set on Calf thymus DNA of 5.04.
Turning to `COc1cc(NS(C)(=O)=O)ccc1Nc1c2ccccc2nc2ccc(I)cc12`, the Log K in the data set with Calf thymus DNA came to 5.7. The pKa in “physchem” was determined as 6.6.
For `CCOc1cccc2c(Nc3ccc(NS(C)(=O)=O)cc3OC)c3ccccc3nc12`, the Log K in the data set on Calf thymus DNA turned out to be 5.77. In addition, the pKa in the data set “physchem” amounted to 7.37.
In the data set on Calf thymus DNA, `COc1cc(NS(C)(=O)=O)ccc1Nc1c2ccccc2nc2cc(Br)ccc12` registered a Log K of 6.29. Also, the pKa in the data set “physchem” was determined as 6.84.
In the case of `CCCCNC(=O)c1cccc2c(Nc3ccc(NS(C)(=O)=O)cc3OC)c3ccccc3nc12`, the Log K in the data set on Calf thymus DNA is 5.4.
In the data set with Calf thymus DNA, `COc1cc(NS(C)(=O)=O)ccc1Nc1c2ccccc2nc2ccc(N)cc12` yielded a Log K of 5.95. The pKa in the data set “physchem” was determined as 7.37.
In the data set with Calf thymus DNA, `COc1cc(NS(C)(=O)=O)ccc1Nc1c2ccccc2nc2c(-c3ccccc3)cccc12` yielded a Log K of 5.6. In “physchem”, this compound registered a pKa of 7.02.
For `CCc1ccc2c(Nc3ccc(NS(C)(=O)=O)cc3OC)c3ccccc3nc2c1`, the Log K in the data set on Calf thymus DNA worked out at 5.66. This compound also registered a pKa in the data set “physchem” of 7.65.
In the case of `COc1cc(NS(C)(=O)=O)ccc1Nc1c2ccccc2nc2c(OCCCC(N)=O)cccc12`, the Log K in the data set on Calf thymus DNA was determined as 5.74. The pKa in the data set “physchem” came out at 7.36.
Regarding `COc1cc(NS(C)(=O)=O)ccc1Nc1c2ccccc2nc2c(C(=O)NCCO)cccc12`, in the data set on Calf thymus DNA, the Log K was 5.42. This compound also returned a pKa in the data set “physchem” of 6.27.
On to `COc1cc(NS(C)(=O)=O)ccc1Nc1c2ccccc2nc2c(C(N)=O)cccc12`, for which the Log K in the data set on Calf thymus DNA was determined as 5.47.
Take `COc1cc(NS(C)(=O)=O)ccc1Nc1c2ccccc2nc2ccc(C)cc12`: the Log K in the data set with Calf thymus DNA came to 5.35. The pKa in the data set “physchem” came to 7.45.

The record behind these values is ChEMBL document CHEMBL1121904, “Potential antitumor agents. 35. Quantitative relationships between antitumor (L1210) potency and DNA binding for 4'-(9-acridinylamino)methanesulfon-m-anisidide analogues” (J Med Chem, 1981).
